# Assay results: US8269008B2, “Oxazolopyridine and isoxazolopyridine derivatives for use in the treatment of HIF-mediated conditions” (FibroGen, Inc., priority 2007, dated 2012)
# Molecular target: T1, HIF-PH2 (EGLN1) (Homo sapiens, UniProt Q9GZT9)
# T1 construct: made in house; host or cells: insect Hi5 cells
# Assay: HIF-PH assay (14CO2 capture, peptide-dependent turnover)
# Type: biochemical
# Details: Concentration 22.22 μM
# Source text: Ketoglutaric acid α-[1-^14C]-sodium salt, alpha-ketoglutaric acid sodium salt, and HPLC purified peptide may be obtained from commercial sources, e.g., Perkin-Elmer (Wellesley Mass.), Sigma-Aldrich, and SynPep Corp. (Dublin Calif.), respectively. Peptides for use in the assay may be fragments of HIFα as described above or as disclosed in International Publication WO 2005/118836, incorporated by reference herein. For example, a HLF peptide for use in the HIF-PH assay is [methoxycoumarin]-DLDLEALAPYIPADDDFQL-amide. HIF-PH, e.g., HIF-PH2 (EGLN1), can be expressed in, e.g., insect Hi5 cells, and partially purified, e.g., through a SP ion exchange chromatography column. Enzyme activity is determined by capturing ^14CO2 using an assay described by Kivirikko and Myllyla (1982, Methods Enzymol. 82:245-304). Assay reactions contain 50 mM HEPES (pH 7.4), 100 μM α-ketoglutaric acid sodium salt, 0.30 μCi/mL ketoglutaric acid α-[1-^14C]-sodium salt, 40 μM FeSO4, 1 mM ascorbate, 1541.8 units/mL Catalase, with or without 50 μM peptide substrate and various concentrations of compound of the invention. Reactions are initiated by addition of HIF-PH enzyme.
# The peptide-dependent percent turnover is calculated by subtracting percent turnover in the absence of peptide from percent turnover in the presence of substrate peptide. Percent inhibition and IC50 are calculated using peptide-dependent percent turnover at given inhibitor concentrations. Calculation of IC50 values for each inhibitor is conducted using GraFit software (Erithacus Software Ltd., Surrey UK). […]
# T1 sequence (Q9GZT9 whole entry, species assumed): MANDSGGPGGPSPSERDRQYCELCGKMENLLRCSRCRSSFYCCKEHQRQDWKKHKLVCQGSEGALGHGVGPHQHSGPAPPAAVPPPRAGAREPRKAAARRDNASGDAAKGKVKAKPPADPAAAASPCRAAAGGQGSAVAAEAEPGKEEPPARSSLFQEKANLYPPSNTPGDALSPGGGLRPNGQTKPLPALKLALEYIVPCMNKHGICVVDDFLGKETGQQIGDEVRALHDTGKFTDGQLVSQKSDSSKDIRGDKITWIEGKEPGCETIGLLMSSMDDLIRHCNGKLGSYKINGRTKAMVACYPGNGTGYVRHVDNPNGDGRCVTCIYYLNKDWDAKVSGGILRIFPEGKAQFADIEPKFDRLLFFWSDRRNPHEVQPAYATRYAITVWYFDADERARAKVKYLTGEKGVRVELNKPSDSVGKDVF
row,inhibition at 22.22 µM [%],SMILES
1,98.9,"COc1ccc(-c2noc3c(O)c(C(=O)NCC(=O)O)nc(-c4ccccc4)c23)cc1 [Example 55, {[7-Hydroxy-3-(4-methoxy-phenyl)-4-phenyl-isoxazolo[4,5-c]pyridine-6-carbonyl]-amino}-acetic acid]"
2,98.6,"O=C(O)CNC(=O)c1nc(C#Cc2ccccc2)c2c(-c3ccccc3)noc2c1O [Example 57, [(7-Hydroxy-3-phenyl-4-phenylethynyl-isoxazolo[4,5-c]pyridine-6-carbonyl)-amino]-acetic acid]"
3,98.4,"N#Cc1cccc(-c2noc3cnc(C(=O)NCC(=O)O)c(O)c23)c1 [Example 67, {[3-(3-Cyano-phenyl)-4-hydroxy-isoxazolo[5,4-c]pyridine-5-carbonyl]-amino}-acetic acid]"
4,97.4,"N#Cc1ccc(-c2noc3cnc(C(=O)NCC(=O)O)c(O)c23)cc1 [Example 68, {[3-(4-Cyano-phenyl)-4-hydroxy-isoxazolo[5,4-c]pyridine-5-carbonyl]-amino}-acetic acid]"
5,99.8,"O=C(O)CNC(=O)c1ncc2onc(-c3ccc(Oc4ccccc4)cc3)c2c1O [Example 69, {[4-Hydroxy-3-(4-phenoxy-phenyl)-isoxazolo[5,4-c]pyridine-5-carbonyl]-amino}-acetic acid]"
6,99.3,"Cc1noc2cnc(C(=O)NCC(=O)O)c(O)c12 [Example 70, [(4-Hydroxy-3-methyl-isoxazolo[5,4-c]pyridine-5-carbonyl)-amino]-acetic acid]"

# The next lines start with the molecule.
row,SMILES,inhibition at 22.22 µM [%]
1,"O=C(O)CNC(=O)c1nc(-c2ccncc2)c2onc(-c3ccccc3)c2c1O [Example 36, [(4-Hydroxy-3-phenyl-7-pyridin-4-yl-isoxazolo[5,4-c]pyridine-5-carbonyl)-amino]-acetic acid]",98.5
2,"O=C(O)CNC(=O)c1nc(-c2ccccn2)c2onc(-c3ccccc3)c2c1O [Example 37, [(4-Hydroxy-3-phenyl-7-pyridin-2-yl-isoxazolo[5,4-c]pyridine-5-carbonyl)-amino]-acetic acid]",99.6
3,"O=C(O)CNC(=O)c1nc(C(F)(F)F)c2onc(-c3ccccc3)c2c1O [Example 38, [(4-Hydroxy-3-phenyl-7-trifluoromethyl-isoxazolo[5,4-c]pyridine-5-carbonyl)-amino]-acetic acid]",97.8
4,"O=C(O)CNC(=O)c1ncc2onc(-c3ccc(OC(F)(F)F)cc3)c2c1O [Example 39, {[4-Hydroxy-3-(4-trifluoromethoxy-phenyl)-isoxazolo[5,4-c]pyridine-5-carbonyl]-amino}-acetic acid]",98.7
5,"CC(C)(C)c1ccc(-c2noc3cnc(C(=O)NCC(=O)O)c(O)c23)cc1 [Example 40, {[3-(4-tert-Butyl-phenyl)-4-hydroxy-isoxazolo[5,4-c]pyridine-5-carbonyl]-amino}-acetic acid]",98.8
6,"O=C(O)CNC(=O)c1nc(Br)c2onc(-c3ccccc3)c2c1O [Example 41, [(7-Bromo-4-hydroxy-3-phenyl-isoxazolo[5,4-c]pyridine-5-carbonyl)-amino]-acetic acid]",99.4

# Same assay, conditions: Concentration 200.00 μM
row,inhibition at 200 µM [%],SMILES
1,98.6,"N#Cc1nc(C(=O)NCC(=O)O)c(O)c2onc(-c3ccc(F)cc3)c12 [Example 52, {[4-Cyano-3-(4-fluoro-phenyl)-7-hydroxy-isoxazolo[4,5-c]pyridine-6-carbonyl]-amino}-acetic acid]"
2,99.4,"COc1ccc(-c2noc3c(O)c(C(=O)NCC(=O)O)nc(C#N)c23)cc1 [Example 53, {[4-Cyano-7-hydroxy-3-(4-methoxy-phenyl)-isoxazolo[4,5-c]pyridine-6-carbonyl]-amino}-acetic acid]"
3,99.9,"N#Cc1nc(C(=O)NCC(=O)O)c(O)c2onc(-c3ccc(Br)o3)c12 [Example 54, {[3-(5-Bromo-furan-2-yl)-4-cyano-7-hydroxy-isoxazolo[4,5-c]pyridine-6-carbonyl]-amino}-acetic acid]"
4,98.9,"COc1ccc(-c2noc3c(O)c(C(=O)NCC(=O)O)nc(C)c23)cc1 [Example 56, {[7-Hydroxy-3-(4-methoxy-phenyl)-4-methyl-isoxazolo[4,5-c]pyridine-6-carbonyl]-amino}-acetic acid]"
5,100,"C#Cc1nc(C(=O)NCC(=O)O)c(O)c2onc(-c3ccccc3)c12 [Example 58, [(4-Ethynyl-7-hydroxy-3-phenyl-isoxazolo[4,5-c]pyridine-6-carbonyl)-amino]-acetic acid]"
6,99.3,"O=C(O)CNC(=O)c1nc(C2CC2)c2c(-c3cccs3)noc2c1O [Example 59, [(4-Cyclopropyl-7-hydroxy-3-thiophen-2-yl-isoxazolo[4,5-c]pyridine-6-carbonyl)-amino]-acetic acid]"
7,100,"COc1ccc(-c2noc3c(O)c(C(=O)NCC(=O)O)nc(Cn4cccn4)c23)cc1 [Example 60, {[7-Hydroxy-3-(4-methoxy-phenyl)-4-pyrazol-1-ylmethyl-isoxazolo[4,5-c]pyridine-6-carbonyl]-amino}-acetic acid]"
8,100,"CC(=O)c1nc(C(=O)NCC(=O)O)c(O)c2onc(-c3ccccc3)c12 [Example 61, [(4-Acetyl-7-hydroxy-3-phenyl-isoxazolo[4,5-c]pyridine-6-carbonyl)-amino]-acetic acid]"
9,100,"O=C(O)CNC(=O)c1nc(Cc2ccccc2)c2c(-c3ccccc3)noc2c1O [Example 62, [(4-Benzyl-7-hydroxy-3-phenyl-isoxazolo[4,5-c]pyridine-6-carbonyl)-amino]-acetic acid]"
10,100,"O=C(O)CNC(=O)c1nc(-c2cn(Cc3ccccc3)nn2)c2c(-c3ccccc3)noc2c1O [Example 63, {[4-(1-Benzyl-1H-[1,2,3]-triazol-4-yl)-7-hydroxy-3-phenyl-isoxazolo[4,5-c]pyridine-6-carbonyl]-amino}-acetic acid]"
11,94.2,"O=C(O)CNC(=O)c1nc(C(F)(F)F)c2c(-c3ccccc3)noc2c1O [Example 64, [(7-Hydroxy-3-phenyl-4-trifluoromethyl-isoxazolo[4,5-c]pyridine-6-carbonyl)-amino]-acetic acid]"
12,100,"O=C(O)CNC(=O)c1ncc2c(C3=CCCCC3)noc2c1O [Example 65, [(3-Cyclohex-1-enyl-7-hydroxy-isoxazolo[4,5-c]pyridine-6-carbonyl)-amino]-acetic acid]"
13,99.1,"CCc1noc2c(O)c(C(=O)NCC(=O)O)ncc12 [Example 66, [(3-Ethyl-7-hydroxy-isoxazolo[4,5-c]pyridine-6-carbonyl)-amino]-acetic acid]"

# Further lines, the molecule ahead of its results:
row,SMILES,inhibition at 200 µM [%]
1,"O=C(O)CNC(=O)c1ncc2c(-c3ccccc3)noc2c1O [Example 42, [(7-Hydroxy-3-phenyl-isoxazolo[4,5-c]pyridine-6-carbonyl)-amino]-acetic acid]",98.4
2,"C[C@H](NC(=O)c1ncc2c(-c3ccccc3)noc2c1O)C(=O)O [Example 43, (S)-2-[(7-Hydroxy-3-phenyl-isoxazolo[4,5-c]pyridine-6-carbonyl)amino]-propionic acid]",98.7
3,"C[C@@H](NC(=O)c1ncc2c(-c3ccccc3)noc2c1O)C(=O)O [Example 44, (R)-2-[(7-Hydroxy-3-phenyl-isoxazolo[4,5-c]pyridine-6-carbonyl)-amino]-propionic acid]",82.2
4,"O=C(O)CNC(=O)c1ncc2c(-c3ccc(F)cc3)noc2c1O [Example 45, {[3-(4-Fluoro-phenyl)-7-hydroxy-isoxazolo[4,5-c]pyridine-6-carbonyl]-amino}-acetic acid]",98.6
5,"COc1ccc(-c2noc3c(O)c(C(=O)NCC(=O)O)ncc23)cc1 [Example 46, {[7-Hydroxy-3-(4-methoxy-phenyl)-isoxazolo[4,5-c]pyridine-6-carbonyl]-amino}-acetic acid]",99.4
6,"O=C(O)CNC(=O)c1ncc2c(-c3cccs3)noc2c1O [Example 47, [(7-Hydroxy-3-thiophen-2-yl-isoxazolo[4,5-c]pyridine-6-carbonyl)-amino]-acetic acid]",99
7,"O=C(O)CNC(=O)c1ncc2c(-c3ccncc3)noc2c1O [Example 48, [(7-Hydroxy-3-pyridin-4-yl-isoxazolo[4,5-c]pyridine-6-carbonyl)-amino]-acetic acid]",100
8,"O=C(O)CNC(=O)c1ncc2c(-c3ccc(Br)o3)noc2c1O [Example 49, {[3-(5-Bromo-furan-2-yl)-7-hydroxy-isoxazolo[4,5-c]pyridine-6-carbonyl]-amino}-acetic acid]",96.3
9,"Cc1nc(C(=O)NCC(=O)O)c(O)c2onc(-c3ccccc3)c12 [Example 50, [(7-Hydroxy-4-methyl-3-phenyl-isoxazolo[4,5-c]pyridine-6-carbonyl)-amino]-acetic acid]",99.5
10,"N#Cc1nc(C(=O)NCC(=O)O)c(O)c2onc(-c3cccs3)c12 [Example 51, [(4-Cyano-7-hydroxy-3-thiophen-2-yl-isoxazolo[4,5-c]pyridine-6-carbonyl)-amino]-acetic acid]",98.8
